Laboratory results reported in patent publication US7700284B2, “Reporter transcription unit populations and kits comprising same” (Attagene, Inc., priority 2004, dated 2010).
Values belong to the compound of their own block, whether it stands above or below them.

Key:
NF-κB RTU = experiment: Multiplexed RTU reporter profiling in transfected HEK293 cells, NF-κB RTU; details: HEK293, 100 u per ml, 6 hrs stimulation, 11-RTU library
metal-sensitive MTΔ RTU = experiment: Multiplexed RTU reporter profiling in transfected HEK293 cells, MTΔ RTU; details: HEK293, 100 μM, 6 hrs stimulation, 11-RTU library
[1] = target: GR RTU (Gal4DBD-GR fusion) (Homo sapiens, UniProt P04150); details: HEK293, 10 uM, 6 hrs induction, versus non-induced cells
[2] = system: Elk-1 TAD RTU (ERK1/2 pathway); experiment: MAPK pathway TAD RTU profiling in HEK293 cells, Elk-1 TAD RTU; type: cell-based, human; details: HEK293, PMA 10 uM, 6 hours induction, versus control cells
ATF2 TAD RTU = experiment: MAPK pathway TAD RTU profiling in HEK293 cells, ATF2 TAD RTU; type: cell-based, human; details: HEK293, PMA 10 uM, 6 hours induction
c-Jun TAD RTU = experiment: MAPK pathway TAD RTU profiling in HEK293 cells, c-Jun TAD RTU; type: cell-based, human; details: HEK293, PMA 10 uM, 6 hours induction

Chain of GR RTU (Gal4DBD-GR fusion) (P04150 486-777): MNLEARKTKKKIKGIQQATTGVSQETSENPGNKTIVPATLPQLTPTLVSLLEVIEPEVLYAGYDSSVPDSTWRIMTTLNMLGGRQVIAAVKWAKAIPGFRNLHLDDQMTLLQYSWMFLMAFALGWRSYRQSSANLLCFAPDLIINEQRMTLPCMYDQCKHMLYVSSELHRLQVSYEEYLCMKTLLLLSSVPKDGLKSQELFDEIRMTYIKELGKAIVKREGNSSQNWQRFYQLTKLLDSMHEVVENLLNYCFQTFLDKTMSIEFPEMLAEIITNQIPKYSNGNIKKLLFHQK

Compound: IL-1β: Human recombinant IL-1β purchased from Roche; NF-κB inducer
activation of NF-κB RTU (stimulated versus nonstimulated cells) (NF-κB RTU): specifically activated

Compound: [Cl-].[Cl-].[Zn+2] [ZnCl2]
induction of MTΔ RTU (stimulated versus nonstimulated cells) (metal-sensitive MTΔ RTU): induced

increase of reporter peak produced by GR RTU [1]: 10 fold
Compound: dexamethasone [Dexamethazone]

Compound: CCCCCCCCCCCCCC(=O)O[C@@H]1[C@@H](C)[C@@]2(O)[C@@H](C=C(CO)C[C@@]3(O)C(=O)C(C)=C[C@@H]23)[C@@H]2C(C)(C)[C@]12OC(C)=O [PMA, 4α-Phorbol 12-myristate 13-acetate]
activation of the Elk-1 TAD RTU [2]: ~20 fold
activity of ATF2 TAD RTU (ATF2 TAD RTU): remained unchanged
activity of c-Jun TAD RTU (c-Jun TAD RTU): remained unchanged
